Read-outs that look alike come from different tables or passages of the source.
Tests used:
[1] = water, cited from earlier work
HTLV-III/LAV = conditions: H9 cells; Schaffner et al. 1986; cited from earlier work
human red blood cells = test: Lysis of human red blood cells (hemoglobin release at 550 nm); type: cell-based; conditions: SLS present in F-SPA-222
Protocol: The human RBCs were incubated at 37° C. for 45 min. with ( X) free-SPA-222, (Δ) sodium lauryl sulfate, ( .circle. ) free SPA-160, ( .circle. ) liposomal SPA-160 (L-SPA-160) in liposomes composed of DMPC:DMPG (7:3), ( ) L-SPA-160 in liposomes composed of DMPC:DMPG+cholesterol (9:1) or ( ) L-SPA-160 in liposomes composed of DMPC:DMPG+ergosterol (9:1)
Lysis of human red blood cells (HRBCs) was quantitated by measuring the release of hemoglobin in the supernatants at 550 nm, as described previously (Mehta et al., Biochim. Biophys, Acta., Vol. 770, pp. 230-234 (1984)). Various doses of L-SPA were incubated with fresh washed human RBCs at 37° C. for 45 minutes,24 hr, 48 hr and 96 hr.
Lysis of HRBCs was quantitated by measuring the release of hemoglobin in the supernatants at 550 nm as previously described (Mehta et al., (1984) Biochem. Biophys. Acts, 770:230). Various doses of L-SPA-160 were incubated with fresh washed HRBCs at 37° C. for 45 minutes, 24, 48 and 96 hrs. Free-SPA-222, stock dissolved in water and diluted with isotonic PBS was added to the assay. F-SPA-160 as DMFA solution diluted with isotonic PBS was also used as a control and contained 3% DMFA at a final concentration of drug at 300 ug ml. Appropriate solvent controls and empty liposomes were also included in each experiment. […]

[2] = compared with partricin; cited from earlier work

For `C[C@@H]1[C@H](O)[C@@H](C)/C=C/C=C/C=C/C=C/C=C/C=C/C=C/[C@H](O[C@@H]2O[C@H](C)[C@@H](O)[C@H](N)[C@@H]2O)C[C@@H]2O[C@](O)(C[C@@H](O)C[C@@H](O)[C@H](O)CC[C@@H](O)C[C@@H](O)CC(=O)O[C@H]1C)C[C@H](O)[C@H]2C(=O)O` [Amphotericin B], which “Aqueous solubility (in words)” value [1] is on record?
Its value is “insoluble in water”.

And the “Inhibition of HTLV-III/LAV replication (in words)” value (HTLV-III/LAV)?
Its value is “inhibited”.

Which “Aqueous solubility (in words)” value [1] does the source give for `C[C@@H]1[C@H](O)[C@@H](C)/C=C/C=C/CC/C=C/C=C/C=C/C=C/C(O[C@H]2O[C@H](C)[C@@H](O)[C@H](N)[C@@H]2O)CC2O[C@](O)(CC(O)C(O)CCC(O)CC(O)CC(O)CC(=O)O[C@H]1C)CC(O)C2C(=O)O` (some centres unmarked) [Nystatin] here?
Its value is “aqueous insolubility”.

For `CCCCCCCCCCCCOS(=O)(=O)[O-].[Na+]` [SLS, sodium lauryl sulphate], which “Share of F-SPA-222 RBC toxicity associated with SLS” value (human red blood cells) is on record?
The value was “Fifty percent”.

Which “Inhibition of HTLV-III/LAV replication (in words)” value (HTLV-III/LAV) does the source give for `COC(=O)[C@H]1[C@@H]2C[C@@H](O[C@@H]3O[C@H](C)[C@@H](O)[C@H](N)[C@@H]3O)/C=C/C=C/C=C/C=C/C=C/C=C/C=C/[C@H](C)[C@@H](O)[C@@H](C)[C@H](C)OC(=O)C[C@H](O)C[C@H](O)CC[C@@H](O)[C@H](O)C[C@H](O)C[C@](O)(C[C@@H]1O)O2` [amphotericin B methyl ester ascorbate] here?
Its value is “inhibited”.

Which “Aqueous solubility (in words)” value [1] does the source give for Mepartricin here?
The value was “low aqueous solubility”.

What about the “Aqueous solubility (in words)” value ([1]; listed as mepartricin) of the same compound?
The value was “substantially water-insoluble”.

And the “Toxicity to animals relative to partricin (in words)” value [2]?
Its value is “much less toxic to animals than partricin”.
